# pEC50, pIC50: −log10 of the molar value. Structures can show the parent of a compound that is named as a salt.
# Assays:
# [1] = test system: Escherichia coli; assay: Antibacterial activity against Escherichia coli assessed as inhibition of bacterial growth incubated for 24 hrs by agar diffusion assay; type: functional, organism-based
# [2] = target: Cholinesterase (Homo sapiens, UniProt P06276); assay: Inhibition of BChE (unknown origin)
# [3] = test system: L5178Y; assay: Cytotoxicity against mouse L5178Y cells; type: functional, cell-based
# [4] = target: T1, Glutamate receptor ionotropic, NMDA 2B (Homo sapiens, UniProt Q05586+Q13224); assay: Displacement of [3H]ifenprodyl from NMDA receptor NR2B subunit (unknown origin)
# T1 sequence (Q13224 whole entry, one chain of several): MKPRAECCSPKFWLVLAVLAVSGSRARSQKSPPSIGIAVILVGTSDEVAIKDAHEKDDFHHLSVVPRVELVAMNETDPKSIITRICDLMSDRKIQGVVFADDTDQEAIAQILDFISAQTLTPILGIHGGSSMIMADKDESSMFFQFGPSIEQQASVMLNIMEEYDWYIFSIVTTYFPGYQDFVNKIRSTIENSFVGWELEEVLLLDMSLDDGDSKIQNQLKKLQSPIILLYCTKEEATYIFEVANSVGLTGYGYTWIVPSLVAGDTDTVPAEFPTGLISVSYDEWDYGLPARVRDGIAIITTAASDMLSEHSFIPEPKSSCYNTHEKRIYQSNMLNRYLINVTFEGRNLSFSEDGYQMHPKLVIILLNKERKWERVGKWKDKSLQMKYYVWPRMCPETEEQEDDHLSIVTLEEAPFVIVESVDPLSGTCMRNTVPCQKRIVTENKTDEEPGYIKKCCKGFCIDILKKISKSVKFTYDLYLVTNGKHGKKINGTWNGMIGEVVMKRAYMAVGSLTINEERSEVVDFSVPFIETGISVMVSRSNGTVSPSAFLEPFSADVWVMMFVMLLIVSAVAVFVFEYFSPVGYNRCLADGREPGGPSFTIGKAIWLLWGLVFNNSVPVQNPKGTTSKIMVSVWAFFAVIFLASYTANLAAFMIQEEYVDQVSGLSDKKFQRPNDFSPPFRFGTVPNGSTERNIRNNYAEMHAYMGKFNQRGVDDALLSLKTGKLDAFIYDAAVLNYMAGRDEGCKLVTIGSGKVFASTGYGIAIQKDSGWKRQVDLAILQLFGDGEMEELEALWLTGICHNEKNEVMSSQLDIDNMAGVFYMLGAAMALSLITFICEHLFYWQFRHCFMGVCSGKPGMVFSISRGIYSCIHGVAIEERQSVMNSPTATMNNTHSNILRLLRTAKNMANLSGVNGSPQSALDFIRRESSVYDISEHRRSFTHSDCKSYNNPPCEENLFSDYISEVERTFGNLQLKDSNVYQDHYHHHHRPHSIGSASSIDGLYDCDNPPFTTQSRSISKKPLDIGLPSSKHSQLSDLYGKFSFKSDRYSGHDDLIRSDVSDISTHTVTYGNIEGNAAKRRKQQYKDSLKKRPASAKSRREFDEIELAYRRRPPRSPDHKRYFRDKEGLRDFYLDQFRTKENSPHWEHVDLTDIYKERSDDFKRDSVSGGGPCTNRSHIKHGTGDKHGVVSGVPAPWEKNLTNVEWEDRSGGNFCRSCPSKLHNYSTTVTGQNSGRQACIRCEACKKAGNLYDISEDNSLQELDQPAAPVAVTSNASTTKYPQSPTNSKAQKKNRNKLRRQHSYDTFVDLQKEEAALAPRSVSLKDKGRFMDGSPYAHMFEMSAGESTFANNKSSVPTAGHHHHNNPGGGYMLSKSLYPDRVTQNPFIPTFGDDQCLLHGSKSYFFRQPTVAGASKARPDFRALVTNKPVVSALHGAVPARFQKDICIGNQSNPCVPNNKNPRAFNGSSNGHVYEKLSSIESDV
# [5] = target: T1, Glutamate receptor ionotropic, NMDA 2B; assay: Displacement of [3H]MK801 from NMDA receptor NR2B subunit (unknown origin)
# [6] = target: Acetylcholinesterase (Homo sapiens, UniProt P22303); assay: Inhibition of human erythrocyte AChE incubated for 10 mins by Ellman's method; type: cell-based
# Chain of Acetylcholinesterase (P22303 whole entry): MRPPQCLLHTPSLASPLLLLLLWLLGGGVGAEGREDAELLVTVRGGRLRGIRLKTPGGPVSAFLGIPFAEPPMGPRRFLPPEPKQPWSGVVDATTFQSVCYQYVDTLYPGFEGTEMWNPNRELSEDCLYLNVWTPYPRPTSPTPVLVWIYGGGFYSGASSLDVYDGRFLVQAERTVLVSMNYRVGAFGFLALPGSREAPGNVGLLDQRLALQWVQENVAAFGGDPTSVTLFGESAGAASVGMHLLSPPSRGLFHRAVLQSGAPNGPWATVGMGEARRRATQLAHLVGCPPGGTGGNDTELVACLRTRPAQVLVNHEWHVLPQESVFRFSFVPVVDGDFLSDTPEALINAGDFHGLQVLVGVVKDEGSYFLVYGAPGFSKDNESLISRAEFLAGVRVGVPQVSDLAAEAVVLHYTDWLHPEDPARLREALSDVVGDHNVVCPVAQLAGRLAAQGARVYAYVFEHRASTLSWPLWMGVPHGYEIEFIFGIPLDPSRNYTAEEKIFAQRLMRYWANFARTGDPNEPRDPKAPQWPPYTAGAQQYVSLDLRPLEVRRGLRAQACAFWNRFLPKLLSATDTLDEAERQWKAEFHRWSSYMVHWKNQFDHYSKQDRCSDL
# [7] = target: Cholinesterase (Equus caballus, UniProt P81908); assay: Inhibition of horse serum BChE incubated for 10 mins by Ellman's method; type: cell-free
# Chain of Cholinesterase (Equus caballus, UniProt P81908) (P81908 whole entry): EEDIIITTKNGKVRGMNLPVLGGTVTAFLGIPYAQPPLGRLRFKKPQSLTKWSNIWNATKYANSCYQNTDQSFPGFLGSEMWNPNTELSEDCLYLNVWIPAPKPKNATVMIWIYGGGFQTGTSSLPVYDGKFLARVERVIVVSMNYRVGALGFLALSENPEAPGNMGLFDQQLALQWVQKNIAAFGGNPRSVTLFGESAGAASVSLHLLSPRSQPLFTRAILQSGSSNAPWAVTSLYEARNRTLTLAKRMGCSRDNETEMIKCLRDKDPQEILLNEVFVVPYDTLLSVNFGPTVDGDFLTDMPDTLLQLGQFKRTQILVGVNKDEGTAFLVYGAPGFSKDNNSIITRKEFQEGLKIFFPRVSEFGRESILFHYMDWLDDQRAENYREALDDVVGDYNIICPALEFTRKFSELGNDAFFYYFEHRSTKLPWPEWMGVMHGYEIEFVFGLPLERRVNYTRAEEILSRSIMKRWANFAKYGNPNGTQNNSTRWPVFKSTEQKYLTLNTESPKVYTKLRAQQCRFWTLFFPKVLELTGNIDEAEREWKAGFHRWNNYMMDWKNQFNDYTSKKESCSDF
# [8] = target: Glutamate [NMDA] receptor; assay: Displacement of [3H]ifenprodyl from NMDA receptor (unknown origin); type: protein-complex assay, Homo sapiens
# [9] = Selectivity index, ratio of CC50 for cytotoxicity against MDBK cells to EC50 for antiviral activity against bovine viral diarrhea virus 1 infected in MDBK cells; type: toxicity, cell-based; details: cattle, read-out: Ratio CC50/EC50
# [10] = test system: Bovine viral diarrhea virus 1; assay: Antiviral activity against bovine viral diarrhea virus 1 infected in MDBK cells assessed as reduction in viral replication-induced cell destruction incubated for 3 days; type: functional, organism-based; details: Bovine viral diarrhea virus isolates and strains, 72 h
# Chain of Cholinesterase (Homo sapiens, UniProt P06276) (P06276 whole entry): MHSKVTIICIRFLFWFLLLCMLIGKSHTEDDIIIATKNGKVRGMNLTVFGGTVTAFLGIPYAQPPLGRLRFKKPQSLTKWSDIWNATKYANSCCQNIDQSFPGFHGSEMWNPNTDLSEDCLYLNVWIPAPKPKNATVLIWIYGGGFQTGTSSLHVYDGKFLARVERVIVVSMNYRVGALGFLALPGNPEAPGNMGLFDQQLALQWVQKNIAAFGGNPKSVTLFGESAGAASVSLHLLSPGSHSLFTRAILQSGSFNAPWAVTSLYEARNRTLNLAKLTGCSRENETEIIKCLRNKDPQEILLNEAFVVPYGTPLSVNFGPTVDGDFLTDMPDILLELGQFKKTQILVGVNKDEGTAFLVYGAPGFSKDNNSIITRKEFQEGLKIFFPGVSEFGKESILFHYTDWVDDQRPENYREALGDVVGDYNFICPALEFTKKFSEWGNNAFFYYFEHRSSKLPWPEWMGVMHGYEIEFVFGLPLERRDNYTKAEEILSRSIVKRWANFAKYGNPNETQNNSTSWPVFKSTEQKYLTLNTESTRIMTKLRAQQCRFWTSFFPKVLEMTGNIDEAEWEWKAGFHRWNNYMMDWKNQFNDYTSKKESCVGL
compound,measurement,setting,value
CN(C)[C@@H]1C(O)=C(C(N)=O)C(=O)[C@@]2(O)C(O)=C3C(=O)c4c(O)cccc4[C@@](C)(O)[C@H]3C[C@@H]12 [TETRACYCLINE HYDROCHLORIDE],pIC50,[1],4.52
CCN1CCc2c(c3ccccc3n2CC(O)Cn2c3c(c4ccccc42)CCCC3)C1 (stereo unspecified),pIC50,[2],5.56
CN1CCc2c(c3ccccc3n2CC(O)Cn2c3c(c4ccccc42)CCCC3)C1 (stereo unspecified),pIC50,[2],5.97
Nc1nccc(-c2cncc3c2[nH]c2ccccc23)n1,EC50,[3],9.1 µg/mL
CCN1CCc2c(c3cc(C)ccc3n2-c2c(C(F)(F)F)nc3ccccn23)C1,pIC50,[4],4.40
CCc1ccc2c(c1)c1c(n2CCC(=O)N2c3ccccc3Sc3ccccc32)CCN(C)C1,pIC50,[4],4.81
same,pIC50,[5],4.88
CN1CCc2c(c3ccccc3n2Cc2ccccc2C(=O)NCCO[N+](=O)[O-])C1,pIC50,[6],4.83
same,pIC50,[7],5.43
CCN1CCc2c(c3cc(F)ccc3n2CC(O)Cn2c3c(c4ccccc42)CCCC3)C1 (stereo unspecified),pIC50,[2],5.23
CCN1CCc2c(c3cc(F)ccc3n2CCC(=O)N2c3ccccc3Sc3ccccc32)C1,pIC50,[4],5.06
same,pIC50,[5],4.80
CCN1CCc2c(c3cc(C)ccc3n2CC(O)Cn2c3c(c4ccccc42)CCCC3)C1 (stereo unspecified),pIC50,[2],5.28
COc1ccc2c(c1)c1c(n2CC(O)CN2c3ccccc3Sc3ccccc32)CCN(C)C1 (stereo unspecified),pIC50,[2],6.41
Cc1ccc2c(c1)c1c(n2CC(O)Cn2c3c(c4ccccc42)CCCC3)CCN(C)C1 (stereo unspecified),pIC50,[2],5.41
Cn1cc2c3ccccc3n(C)c2c(Cc2ccccc2Cl)c1=O,pIC50,[1],4.77
Cc1ccc2c(c1)c1c(n2CCc2ccc(C)nc2)CCN(C)C1 [LATREPIRDINE],pIC50,[4],4.08
CCN1CCc2c(c3cc(C)ccc3n2CC(O)Cn2c3ccccc3c3ccccc32)C1 (stereo unspecified),pIC50,[8],4.90
c1ccc2c(c1)[nH]c1ccncc12,selectivity ratio,[9],20
Cc1ccc2c(c1)c1c(n2CCC(=O)N(C)c2c(C(F)(F)F)nc3cc(C)ccn23)CCN(C)C1,pIC50,[4],4.49
Cc1ccc2c(c1)c1c(n2CC(O)Cn2c3ccccc3c3ccccc32)CCN(C)C1 (stereo unspecified),pIC50,[8],4.93
Cc1ncc2c3ccccc3n(C)c2c1C,pEC50,[10],8.46
same,selectivity ratio,[9],2060
CN1CCc2c(c3cc(F)ccc3n2CC(O)Cn2c3c(c4ccccc42)CCCC3)C1 (stereo unspecified),pIC50,[2],5.30
CCN1CCc2c(c3ccccc3n2CCC(=O)N2c3ccccc3Sc3ccccc32)C1,pIC50,[4],4.87
same,pIC50,[5],4.84

# Reference: ChEMBL document CHEMBL5252549, “Recent developments on synthesis and biological activities of γ-carboline” (Eur J Med Chem, 2018)
